Measurements published in ChEMBL document CHEMBL1201862, “PubChem BioAssay data set” (2004).
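A five-concentration, 48-hour dose response in 96-well plates underlies each endpoint, interpolated linearly between surrounding concentrations. Here, GI50 denotes the concentration required for 50% inhibition of growth.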 Calls of active or inactive are those of the source. Cut-off read from the data, not from the text of the source: active = GI50 up to about 1.1 µM and inactive = higher.

How the values were obtained:
Test in all cases: growth of human tumour cells (NCI), 48 h
CCRF-CEM = test system: CCRF-CEM
NCI-H522 = test system: NCI-H522
RPMI-8226 = test system: RPMI-8226
SN12C = test system: SN12C
SW-620 = test system: SW-620
SR = test system: SR
OVCAR-5 = test system: OVCAR-5
HOP-62 = test system: HOP-62
A549 = test system: A549
T47D = test system: T47D
OVCAR-8 = test system: OVCAR-8
HL-60 = test system: HL-60
HT-29 = test system: HT-29
UACC-257 = test system: UACC-257
RXF 393 = test system: RXF 393
COLO 205 = test system: COLO 205
SF-295 = test system: SF-295
DU-145 = test system: DU-145
OVCAR-3 = test system: OVCAR-3
K562 = test system: K562

| SMILES | GI50 (CCRF-CEM) | GI50 (NCI-H522) | GI50 (RPMI-8226) | GI50 (SN12C) | GI50 (SW-620) | GI50 (SR) | GI50 (OVCAR-5) | GI50 (HOP-62) | GI50 (A549) | GI50 (T47D) | GI50 (OVCAR-8) | GI50 (HL-60) | GI50 (HT-29) | GI50 (UACC-257) | GI50 (RXF 393) | GI50 (COLO 205) | GI50 (SF-295) | GI50 (DU-145) | GI50 (OVCAR-3) | GI50 (K562) |
| --- | --- | --- | --- | --- | --- | --- | --- | --- | --- | --- | --- | --- | --- | --- | --- | --- | --- | --- | --- | --- |
| CC1NC(C(=O)O)Cc2cc(O)c(O)cc21 (stereo unspecified) | 91.2 µM (inactive) | > 100 µM (inactive) | > 100 µM (inactive) | > 100 µM (inactive) | > 100 µM (inactive) | > 100 µM (inactive) | > 100 µM (inactive) | > 100 µM (inactive) | > 100 µM (inactive) | > 100 µM (inactive) | > 100 µM (inactive) | > 100 µM (inactive) | > 100 µM (inactive) | > 100 µM (inactive) | > 100 µM (inactive) | > 100 µM (inactive) | > 100 µM (inactive) | > 100 µM (inactive) | > 100 µM (inactive) |  |
| COC(=O)[C@H](Cc1c[nH]c2ccccc12)NC(=O)c1ccccc1I |  | 15.6 µM (inactive) |  | > 100 µM (inactive) | 31.5 µM (inactive) | 24.2 µM (inactive) | > 100 µM (inactive) | 30.5 µM (inactive) | > 100 µM (inactive) | 22.6 µM (inactive) | 31.7 µM (inactive) | 24.9 µM (inactive) | 23.7 µM (inactive) | 18.8 µM (inactive) | 18.7 µM (inactive) | 17.5 µM (inactive) | 42.4 µM (inactive) | 21.8 µM (inactive) | 13.6 µM (inactive) | 29.3 µM (inactive) |
| COc1cc2c(cc1OC)C1c3ccccc3CCN1CC2 (stereo unspecified) | > 100 µM (inactive) | > 100 µM (inactive) |  | 62.5 µM (inactive) | 63.2 µM (inactive) | > 100 µM (inactive) | > 100 µM (inactive) | 70.8 µM (inactive) | > 100 µM (inactive) | 75.9 µM (inactive) | > 100 µM (inactive) | 30.4 µM (inactive) | 28.5 µM (inactive) | > 100 µM (inactive) | > 100 µM (inactive) | 58.7 µM (inactive) | 82.6 µM (inactive) | > 100 µM (inactive) | > 100 µM (inactive) | 57.7 µM (inactive) |
| COc1ccc(C2SC(=N)Nc3c2c(C)nn3C(=O)c2ccncc2)cc1 (stereo unspecified) | 29.4 µM (inactive) |  | 57.3 µM (inactive) | > 100 µM (inactive) | > 100 µM (inactive) | 21.2 µM (inactive) | > 100 µM (inactive) | > 100 µM (inactive) | > 100 µM (inactive) | 45.5 µM (inactive) | > 100 µM (inactive) | 87.1 µM (inactive) | > 100 µM (inactive) | > 100 µM (inactive) | > 100 µM (inactive) | 57.7 µM (inactive) | > 100 µM (inactive) | > 100 µM (inactive) | 40.4 µM (inactive) | 64.7 µM (inactive) |
| O=C(/N=C1/NCC(CN2CCN(c3ccccc3)CC2)O1)Nc1ccccc1 (stereo unspecified) | > 100 µM (inactive) | > 100 µM (inactive) | > 100 µM (inactive) | > 100 µM (inactive) | > 100 µM (inactive) | > 100 µM (inactive) | > 100 µM (inactive) | > 100 µM (inactive) | > 100 µM (inactive) | > 100 µM (inactive) |  | > 100 µM (inactive) | 63.8 µM (inactive) | > 100 µM (inactive) | > 100 µM (inactive) | > 100 µM (inactive) | > 100 µM (inactive) | > 100 µM (inactive) |  | > 100 µM (inactive) |
| O=C(CCCCCCCCC(=O)NN1C(=O)/C(=C\c2ccc(O)c(O)c2)SC1c1c(O)ccc2ccccc12)NN1C(=O)C(=Cc2ccc(O)c(O)c2)SC1c1c(O)ccc2ccccc12 (stereo unspecified) | 0.828 µM (active) | 5.75 µM (inactive) | 3.85 µM (inactive) | 27.2 µM (inactive) | 7.64 µM (inactive) | 4.42 µM (inactive) | > 49.5 µM (inactive) | 2.45 µM (inactive) | 6.95 µM (inactive) | 11.3 µM (inactive) | 4.49 µM (inactive) |  | 10.8 µM (inactive) | 10.7 µM (inactive) | 10 µM (inactive) | 20.4 µM (inactive) | 3.86 µM (inactive) | 8.28 µM (inactive) | 2.25 µM (inactive) | 5.64 µM (inactive) |
| c1ccc2sc(SSSc3nc4ccccc4s3)nc2c1 | 28.4 µM (inactive) | 23 µM (inactive) | > 100 µM (inactive) | > 100 µM (inactive) | > 100 µM (inactive) | 53.8 µM (inactive) | > 100 µM (inactive) | > 100 µM (inactive) | > 100 µM (inactive) | 32 µM (inactive) | 55.6 µM (inactive) | 49.2 µM (inactive) | 35.7 µM (inactive) | 49.8 µM (inactive) | > 100 µM (inactive) | > 100 µM (inactive) | > 100 µM (inactive) | > 100 µM (inactive) |  | > 100 µM (inactive) |
